Laboratory results reported in ChEMBL document CHEMBL1201862, “PubChem BioAssay data set” (2004).
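Method: 48-hour compound exposure of cells in 96-well plates, five concentrations, linear interpolation of endpoints. The concentration for 50% growth inhibition is given as GI50.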 Calls of active or inactive are those of the source. No stated cut-off is given here; in the data, active = GI50 up to about 1.1 µM and inactive = higher. Peptide text beside a SMILES is read from it. * marks the point of attachment. Boc = CC(C)(C)OC(=O)*; OBn = c1ccc(CO*)cc1; Bn = c1ccc(C*)cc1

How the values were obtained:
Assay in all cases: DTP human tumour cell line panel, 48 h
786-0 = system: 786-0
A498 = system: A498
A549 = system: A549
ACHN = system: ACHN
BT-549 = system: BT-549
COLO 205 = system: COLO 205
EKVX = system: EKVX
HCC 2998 = system: HCC 2998
HCT-116 = system: HCT-116
HCT-15 = system: HCT-15
HL-60 = system: HL-60
HOP-62 = system: HOP-62
HOP-92 = system: HOP-92
HT-29 = system: HT-29
Hs-578T = system: Hs-578T
IGROV-1 = system: IGROV-1
K562 = system: K562
KM12 = system: KM12
M14 = system: M14
MCF7 = system: MCF7
MDA-MB-231 = system: MDA-MB-231
MDA-N = system: MDA-N
MOLT-4 = system: MOLT-4
Malme-3M = system: Malme-3M
NCI-H226 = system: NCI-H226
NCI-H23 = system: NCI-H23
NCI-H460 = system: NCI-H460
OVCAR-5 = system: OVCAR-5
OVCAR-8 = system: OVCAR-8
PC-3 = system: PC-3
RPMI-8226 = system: RPMI-8226
RXF 393 = system: RXF 393
SK-MEL-28 = system: SK-MEL-28
SK-MEL-2 = system: SK-MEL-2
SK-MEL-5 = system: SK-MEL-5
SN12C = system: SN12C
SNB-19 = system: SNB-19
SNB-75 = system: SNB-75
SR = system: SR
SW-620 = system: SW-620
TK-10 = system: TK-10
U-251 = system: U-251
UACC-257 = system: UACC-257
UACC-62 = system: UACC-62
UO-31 = system: UO-31
CAKI-1 = system: CAKI-1
CCRF-CEM = system: CCRF-CEM
DU-145 = system: DU-145
LOX IMVI = system: LOX IMVI
MDA-MB-435 = system: MDA-MB-435
NCI/ADR-RES = system: NCI/ADR-RES
OVCAR-3 = system: OVCAR-3
SF-268 = system: SF-268
SF-295 = system: SF-295
SF-539 = system: SF-539
SK-OV-3 = system: SK-OV-3

For `CC(C)CC(NC(=O)C(CCC(=O)OCc1ccccc1)NC(=O)OC(C)(C)C)C(=O)NC(COCc1ccccc1)C(=O)NC(Cc1ccccc1)C(=O)O` (stereo unspecified) (Boc-E(OBn)LS(Bn)F-OH; configuration not given here), the GI50 (786-0) was > 100 µM (inactive), the GI50 (A498) was > 100 µM (inactive) and the GI50 (A549) was > 100 µM (inactive). For the same compound, the GI50 (ACHN) was > 100 µM (inactive), the GI50 (BT-549) was > 100 µM (inactive) and the GI50 (COLO 205) was > 100 µM (inactive). For the same compound, the GI50 (EKVX) was > 100 µM (inactive), the GI50 (HCC 2998) was > 100 µM (inactive) and the GI50 (HCT-116) was > 100 µM (inactive). The GI50 (HCT-15) was over 100 µM, the GI50 (HL-60) was > 100 µM (inactive) and the GI50 (HOP-62) was > 100 µM (inactive). For the same compound, the GI50 (HOP-92) was > 100 µM (inactive), the GI50 (HT-29) was > 100 µM (inactive) and the GI50 (Hs-578T) was > 100 µM (inactive). For the same compound, the GI50 (IGROV-1) was > 100 µM (inactive), the GI50 (K562) was > 100 µM (inactive) and the GI50 (KM12) was > 100 µM (inactive). The GI50 (M14) was > 100 µM (inactive), the GI50 (MCF7) was > 100 µM (inactive) and the GI50 (MDA-MB-231) was > 100 µM (inactive). For the same compound, the GI50 (MDA-N) was > 100 µM (inactive), the GI50 (MOLT-4) was > 100 µM (inactive) and the GI50 (Malme-3M) was 46.9 µM (inactive). For the same compound, the GI50 (NCI-H226) was > 100 µM (inactive), the GI50 (NCI-H23) was > 100 µM (inactive) and the GI50 (NCI-H460) was > 100 µM (inactive). The GI50 (OVCAR-5) was > 100 µM (inactive), the GI50 (OVCAR-8) was > 100 µM (inactive) and the GI50 (PC-3) was > 100 µM (inactive). The GI50 (RPMI-8226) was > 100 µM (inactive), the GI50 (RXF 393) was > 100 µM (inactive) and the GI50 (SK-MEL-28) was > 100 µM (inactive). The GI50 (SK-MEL-2) was > 100 µM (inactive), the GI50 (SK-MEL-5) was > 100 µM (inactive) and the GI50 (SN12C) was > 100 µM (inactive). The GI50 (SNB-19) was > 100 µM (inactive), the GI50 (SNB-75) was 96.8 µM (inactive) and the GI50 (SR) was > 100 µM (inactive). The GI50 (SW-620) was > 100 µM (inactive), the GI50 (TK-10) was > 100 µM (inactive) and the GI50 (U-251) was > 100 µM (inactive). For the same compound, the GI50 (UACC-257) was > 100 µM (inactive), the GI50 (UACC-62) was > 100 µM (inactive) and the GI50 (UO-31) was > 100 µM (inactive).
`Cn1cc(NC(=O)c2cc(NC(=O)c3cc(NC=O)cn3C)cn2C)cc1C(=O)NCCC(=N)N` [STALLIMYCIN] was tested, and the GI50 (786-0) was > 100 µM (inactive), the GI50 (A498) was 87.9 µM (inactive) and the GI50 (ACHN) was > 100 µM (inactive). For the same compound, the GI50 (BT-549) was > 100 µM (inactive), the GI50 (CAKI-1) was > 100 µM (inactive) and the GI50 (CCRF-CEM) was > 100 µM (inactive). The GI50 (COLO 205) was > 100 µM (inactive), the GI50 (DU-145) was > 100 µM (inactive) and the GI50 (EKVX) was > 100 µM (inactive). For the same compound, the GI50 (HCT-116) was > 100 µM (inactive), the GI50 (HCT-15) was over 100 µM and the GI50 (HL-60) was > 100 µM (inactive). For the same compound, the GI50 (HOP-62) was > 100 µM (inactive), the GI50 (HT-29) was > 100 µM (inactive) and the GI50 (Hs-578T) was 53.1 µM (inactive). The GI50 (IGROV-1) was > 100 µM (inactive), the GI50 (K562) was > 100 µM (inactive) and the GI50 (KM12) was > 100 µM (inactive). The GI50 (LOX IMVI) was > 100 µM (inactive), the GI50 (M14) was > 100 µM (inactive) and the GI50 (MCF7) was > 100 µM (inactive). The GI50 (MDA-MB-231) was > 100 µM (inactive), the GI50 (MDA-MB-435) was > 100 µM (inactive) and the GI50 (MOLT-4) was > 100 µM (inactive). For the same compound, the GI50 (Malme-3M) was 25.5 µM (inactive), the GI50 (NCI-H226) was 7.87 µM (inactive) and the GI50 (NCI-H23) was > 100 µM (inactive). For the same compound, the GI50 (NCI-H460) was > 100 µM (inactive), the GI50 (NCI/ADR-RES) was > 100 µM (inactive) and the GI50 (OVCAR-3) was > 100 µM (inactive). For the same compound, the GI50 (OVCAR-5) was > 100 µM (inactive), the GI50 (OVCAR-8) was > 100 µM (inactive) and the GI50 (PC-3) was > 100 µM (inactive). For the same compound, the GI50 (RPMI-8226) was > 100 µM (inactive), the GI50 (RXF 393) was > 100 µM (inactive) and the GI50 (SF-268) was > 100 µM (inactive). The GI50 (SF-295) was > 100 µM (inactive), the GI50 (SF-539) was > 100 µM (inactive) and the GI50 (SK-MEL-28) was > 100 µM (inactive). For the same compound, the GI50 (SK-MEL-2) was > 100 µM (inactive), the GI50 (SK-MEL-5) was > 100 µM (inactive) and the GI50 (SK-OV-3) was > 100 µM (inactive). The GI50 (SN12C) was > 100 µM (inactive), the GI50 (SNB-19) was > 100 µM (inactive) and the GI50 (SNB-75) was 22.8 µM (inactive). For the same compound, the GI50 (SW-620) was > 100 µM (inactive), the GI50 (TK-10) was > 100 µM (inactive) and the GI50 (U-251) was > 100 µM (inactive). The GI50 (UACC-257) was > 100 µM (inactive), the GI50 (UACC-62) was 61.4 µM (inactive) and the GI50 (UO-31) was > 100 µM (inactive).
